The subject of the data set is CCRIS mutagenicity, Ames/micronucleus/aberration tests. Nature of the data set: CCRIS mutagenicity studies.
Where [1] appears, read: Test System: AMES SALMONELLA TYPHIMURIUM, Strain/Indicator: TA98, Metabolic Activation: NONE, Method: PREINCUBATION
Where [2] appears, read: Test System: AMES SALMONELLA TYPHIMURIUM, Strain/Indicator: TA100, Metabolic Activation: RAT, LIVER, S-9, AROCLOR 1254, Method: PREINCUBATION
Setting [3] is: Test System: AMES SALMONELLA TYPHIMURIUM, Strain/Indicator: TA1535, Metabolic Activation: NONE, Method: PREINCUBATION

Activity calls are given as the source filed them. The rule behind the calls is not given here.

Regarding `C/C=C/C=C/C=O`, the mutagenic call (Test System: AMES SALMONELLA TYPHIMURIUM, Strain/Indicator: TA98, Metabolic Activation: HAMSTER LIVER S-9, AROCLOR 1254 (30%), Method: PREINCUBATION) is “inactive; negative”; the mutagenic call (Test System: AMES SALMONELLA TYPHIMURIUM, Strain/Indicator: TA98, Metabolic Activation: HAMSTER, LIVER, S-9, AROCLOR 1254, Method: STANDARD PLATE) is “inactive; negative”; the mutagenic call under setting [1] was “inactive; negative”; the mutagenic call (Test System: AMES SALMONELLA TYPHIMURIUM, Strain/Indicator: TA98, Metabolic Activation: NONE, Method: STANDARD PLATE) was “inactive; negative”; the mutagenic call (Test System: AMES SALMONELLA TYPHIMURIUM, Strain/Indicator: TA98, Metabolic Activation: RAT LIVER S-9, AROCLOR 1254 (30%), Method: PREINCUBATION) was “inactive; negative”; the mutagenic call (Test System: AMES SALMONELLA TYPHIMURIUM, Strain/Indicator: TA98, Metabolic Activation: RAT, LIVER, S-9, AROCLOR 1254, Method: STANDARD PLATE) was “inactive; negative”. Also, the mutagenic call is, setting by setting: (Test System: AMES SALMONELLA TYPHIMURIUM, Strain/Indicator: TA100, Metabolic Activation: HAMSTER LIVER S-9, AROCLOR 1254 (5%), Method: PREINCUBATION) “active; positive”; (Test System: AMES SALMONELLA TYPHIMURIUM, Strain/Indicator: TA100, Metabolic Activation: HAMSTER LIVER S-9, AROCLOR 1254 (10%), Method: PREINCUBATION) “active; positive”; (Test System: AMES SALMONELLA TYPHIMURIUM, Strain/Indicator: TA100, Metabolic Activation: HAMSTER, LIVER, S-9, AROCLOR 1254, Method: STANDARD PLATE) “inactive; negative”; (Test System: AMES SALMONELLA TYPHIMURIUM, Strain/Indicator: TA100, Metabolic Activation: NONE, Method: PREINCUBATION (THREEFOLD CELL DENSITY)) “active; positive”; (Test System: AMES SALMONELLA TYPHIMURIUM, Strain/Indicator: TA100, Metabolic Activation: NONE, Method: STANDARD PLATE) “inactive; negative”; (Test System: AMES SALMONELLA TYPHIMURIUM, Strain/Indicator: TA100, Metabolic Activation: RAT LIVER S-9, AROCLOR 1254 (5%), Method: PREINCUBATION) “active; positive”. Also, the mutagenic call (Test System: AMES SALMONELLA TYPHIMURIUM, Strain/Indicator: TA100, Metabolic Activation: RAT LIVER S-9, AROCLOR 1254 (10%), Method: PREINCUBATION) was “active; positive”; the mutagenic call under setting [2] was “active; positive”; the mutagenic call (Test System: AMES SALMONELLA TYPHIMURIUM, Strain/Indicator: TA100, Metabolic Activation: RAT, LIVER, S-9, AROCLOR 1254, Method: PREINCUBATION (THREEFOLD CELL DENSITY)) is “active; positive”; the mutagenic call (Test System: AMES SALMONELLA TYPHIMURIUM, Strain/Indicator: TA100, Metabolic Activation: RAT, LIVER, S-9, AROCLOR 1254, Method: STANDARD PLATE) was “inactive; negative”; the mutagenic call (Test System: AMES SALMONELLA TYPHIMURIUM, Strain/Indicator: TA104, Metabolic Activation: NONE, Method: PREINCUBATION) is “active; positive”; the mutagenic call (Test System: AMES SALMONELLA TYPHIMURIUM, Strain/Indicator: TA1535, Metabolic Activation: HAMSTER LIVER S-9, AROCLOR 1254 (30%), Method: PREINCUBATION) is “inactive; negative”. The mutagenic call reads like this: (Test System: AMES SALMONELLA TYPHIMURIUM, Strain/Indicator: TA1535, Metabolic Activation: HAMSTER, LIVER, S-9, AROCLOR 1254, Method: STANDARD PLATE) “inactive; negative”; under setting [3], “inactive; negative”; (Test System: AMES SALMONELLA TYPHIMURIUM, Strain/Indicator: TA1535, Metabolic Activation: NONE, Method: STANDARD PLATE) “inactive; negative”; (Test System: AMES SALMONELLA TYPHIMURIUM, Strain/Indicator: TA1535, Metabolic Activation: RAT LIVER S-9, AROCLOR 1254 (30%), Method: PREINCUBATION) “inactive; negative”; (Test System: AMES SALMONELLA TYPHIMURIUM, Strain/Indicator: TA1535, Metabolic Activation: RAT, LIVER, S-9, AROCLOR 1254, Method: STANDARD PLATE) “inactive; negative”; (Test System: AMES SALMONELLA TYPHIMURIUM, Strain/Indicator: TA1537, Metabolic Activation: HAMSTER, LIVER, S-9, AROCLOR 1254, Method: STANDARD PLATE) “inactive; negative”. Also, the mutagenic call (Test System: AMES SALMONELLA TYPHIMURIUM, Strain/Indicator: TA1537, Metabolic Activation: NONE, Method: STANDARD PLATE) is “inactive; negative”; the mutagenic call (Test System: AMES SALMONELLA TYPHIMURIUM, Strain/Indicator: TA1537, Metabolic Activation: RAT, LIVER, S-9, AROCLOR 1254, Method: STANDARD PLATE) was “inactive; negative”; the mutagenic call (Test System: AMES SALMONELLA TYPHIMURIUM, Strain/Indicator: TA1538, Metabolic Activation: HAMSTER, LIVER, S-9, AROCLOR 1254, Method: STANDARD PLATE) is “inactive; negative”; the mutagenic call (Test System: AMES SALMONELLA TYPHIMURIUM, Strain/Indicator: TA1538, Metabolic Activation: NONE, Method: STANDARD PLATE) is “inactive; negative”; the mutagenic call (Test System: AMES SALMONELLA TYPHIMURIUM, Strain/Indicator: TA1538, Metabolic Activation: RAT, LIVER, S-9, AROCLOR 1254, Method: STANDARD PLATE) is “inactive; negative”; the mutagenic call (Test System: MOUSE LYMPHOMA, Strain/Indicator: L5178Y (TK+/TK-), Metabolic Activation: NONE, Method: SUSPENSION/PLATE) was “active; positive. reevaluation of results: positive”. Moreover, the mutagenic call (Test System: MOUSE LYMPHOMA, Strain/Indicator: L5178Y (TK+/TK-), Metabolic Activation: RAT, LIVER, S-9, AROCLOR 1254, Method: SUSPENSION/PLATE) was “inactive; negative. reevaluation of results: negative”.

Regarding `Oc1c(Cl)c(Cl)c(O)c(Cl)c1Cl`, the mutagenic call is “active; positive” (Test System: CHINESE HAMSTER V79 CELLS, Strain/Indicator: V79 CELLS (HPRT)/6-THIOGUANINE, Metabolic Activation: NONE, Method: PREINCUBATION); “active; positive” (Test System: CHINESE HAMSTER V-79, Strain/Indicator: V-79/6-THIOGUANINE, Metabolic Activation: NONE, Method: SUSPENSION/PLATE); “inactive; negative” (Test System: CHINESE HAMSTER V-79, Strain/Indicator: V-79/OUABAIN, Metabolic Activation: NONE, Method: SUSPENSION/PLATE); “active; positive” (Test System: UDS HUMAN FIBROBLASTS, Strain/Indicator: THY INCORP, Metabolic Activation: NONE, Method: AUTORADIOGRAPHY).

As for `C=CCOCC1CO1` (centres undefined), the mutagenic call (End Point: IN VITRO CHROMOSOMAL ABERRATIONS, Test System: CHL CELLS, Metabolic Activation: NONE) was “active; positive (structural changes)”; the mutagenic call (End Point: IN VITRO CHROMOSOMAL ABERRATIONS, Test System: CHL CELLS, Metabolic Activation: RAT, LIVER, S-9, SODIUM PHENOBARBITAL AND 5,6-BENZOFLAVONE) was “active; positive (structural changes”; the mutagenic call (Test System: AMES SALMONELLA TYPHIMURIUM, Strain/Indicator: TA98, Metabolic Activation: HAMSTER, LIVER, S-9, AROCLOR 1254, Method: PREINCUBATION) is “inactive; negative”; the mutagenic call under setting [1] is “inactive; negative”; the mutagenic call (Test System: AMES SALMONELLA TYPHIMURIUM, Strain/Indicator: TA98, Metabolic Activation: RAT, LIVER, S-9, AROCLOR 1254, Method: PREINCUBATION) was “inactive; negative”; the mutagenic call (Test System: AMES SALMONELLA TYPHIMURIUM, Strain/Indicator: TA100, Metabolic Activation: HAMSTER, LIVER, S-9, AROCLOR 1254, Method: PREINCUBATION) is “active; positive”. The mutagenic call by setting is: (Test System: AMES SALMONELLA TYPHIMURIUM, Strain/Indicator: TA100, Metabolic Activation: NONE, Method: PREINCUBATION) “active; positive”; under setting [2], “active; positive”; (Test System: AMES SALMONELLA TYPHIMURIUM, Strain/Indicator: TA1535, Metabolic Activation: HAMSTER, LIVER, S-9, AROCLOR 1254, Method: PREINCUBATION) “active; positive”; under setting [3], “active; positive”; (Test System: AMES SALMONELLA TYPHIMURIUM, Strain/Indicator: TA1535, Metabolic Activation: RAT, LIVER, S-9, AROCLOR 1254, Method: PREINCUBATION) “active; positive”; (Test System: AMES SALMONELLA TYPHIMURIUM, Strain/Indicator: TA1537, Metabolic Activation: HAMSTER, LIVER, S-9, AROCLOR 1254, Method: PREINCUBATION) “inactive; negative”. The mutagenic call by setting is: (Test System: AMES SALMONELLA TYPHIMURIUM, Strain/Indicator: TA1537, Metabolic Activation: NONE, Method: PREINCUBATION) “inactive; negative”; (Test System: AMES SALMONELLA TYPHIMURIUM, Strain/Indicator: TA1537, Metabolic Activation: RAT, LIVER, S-9, AROCLOR 1254, Method: PREINCUBATION) “inactive; negative”.
